Measured values as given in patent US20230374591A1, “METHODS AND AGENTS FOR TREATING, PREVENTING, DIAGNOSING, AND EVALUATING THERAPY FOR FIBROTIC, AUTOIMMUNE, AND INFLAMMATORY CONDITIONS” (THE TRUSTEES OF DARTMOUTH COLLEGE, priority 2020, published 2023).

What was measured:
[1] = SCOT trial outcomes / event free survival analysis; assay type: in vivo, human; settings: CYC arm, median split, P=0.04
Description: (§1) The SCOT trial compared the therapeutic outcomes of myeloablative CD34+selected autologous HSCT and CYC in severe diffuse SSc patients (for study design details of SCOT trial, see Sullivan K. M. et al., N Engl J Med. 2018 Jan. 4; 378(1): 35-47. doi: 10.1056/nejmoa1703327. [PMID: 29298160]). The trial provided gene expression in the peripheral blood cells (PBCs) from 30 SSc patients who completed HSCT treatment, 33 patients who completed CYC treatment, and 28 healthy controls (Franks J. M. et al., Ann Rheum Dis. 2020 Sep. 15; annrheumdis-2020-217033. doi: 10.1136/annrheumdis-2020-217033. Online ahead of print. [PMID: 32933919]). In the current study, Applicant analyzed the longitudinal expression profile of SCOT patients from baseline to 54 months. 20 month and 26 month data were merged (referred to as 20/26 months), and 48 month and 54 month data were merged (referred to as 48/54 months).
Survival analysis was performed using the “survival” R package based on gene level data. Only the baseline gene expression data were considered for these analyses. Patients were divided into two groups using the median expression value of a given gene as cutoff Briefly, high expression group is patients' gene expression greater than or equal to the median value and low expression group is patients' gene expression lower than the median value. […]

[2] = system: ACVR1C; test: SCOT trial longitudinal PBC gene expression: ACVR1C; assay type: in vivo, human; settings: PBCs of SSc patients, baseline to 48/54 months, imputed data
Description: as §1
(§2) To reduce the statistical bias of downstream comparisons, Applicant applied seasonal adjustment and linear interpolation to impute those missing time points. The “imputeTS” R package was used. Patients with only baseline gene expression data and no longitudinal samples were not imputed (n=20; 32% of participants; 10 for cyclophosphamide and 10 for transplant).

[3] = system: Interleukin 6 (IL6); test: SCOT trial longitudinal PBC gene expression: IL6; assay type: in vivo, human; settings: PBCs of SSc patients
Description: as §1, §2

[4] = system: TGF beta; settings: cited from earlier work

Compound	hazard ratio (HR) for EFS, higher vs lower baseline CLCF1 expression [1]	ACVR1C expression over time [2]	IL6 expression over time [3]	SSc biomarkers ([4]; SSc patients)	clinical symptoms ([4]; SSc patients)	trial result ([4]; SSc)
O=P1(N(CCCl)CCCl)NCCCO1 (stereo not drawn) [CYC, cyclophosphamide]	3.15	flat trend	increased			
fresolimumab: anti-TGF beta monoclonal antibody therapy				decreased	improved	promising results
